According to patent US4321208A, “Preparation of directly iodinated steroid hormones and related compounds” (priority 1976, dated 1982):

How the values were obtained:
anti-serum = settings: Abraham and Odell; iodinated at positions 2 and 4; cited from earlier work
[1] = test system: breast cancer tumor tissue; settings: injected; patients responding to endocrine treatment vs those who do not respond; cited from earlier work
[2] = test system: antiserum against estradiol-17 beta; experiment: Radioimmunoassay: competition of nonradioactive estradiol with ^125 I estradiol-17 beta for antiserum; type: binding; settings: antiserum 1:10,000 or 1:20,000; ^125 I estradiol-17 beta 70 Ci/mM
Description: The procedure of this assay are identical as described by the instant inventor and authors C. […] After incubation, the unbound hormone was removed by charcoal adsorption.

SMILES: C[C@]12CC[C@@H]3c4cc(I)c(O)c(I)c4CC[C@H]3[C@@H]1CC[C@@H]2O
- binding to anti-serum (anti-serum): unable to bind the anti-serum

SMILES: C[C@]12CC[C@@H]3c4ccc(O)cc4CC[C@H]3[C@@H]1CC[C@@H]2O [tritiated estradiol]
- concentration of tritiated hormone in tumor tissue [1]: usually concentrate more tritiated hormones in their tumor tissue

SMILES: C[C@]12CC[C@@H]3c4ccc(O)cc4CC[C@H]3[C@@H]1CC[C@@H]2O [unlabelled estradiol, estradiol]
- effect of unlabelled estradiol on percent bound ^125 I estradiol [2]: the percent bound ^125 I estradiol decreases
